According to PubChem BioAssay AID720570 (Broad Institute, 2013):

Tested on: TC71 Ewing sarcoma viability, CellTiter-Glo ATP, 72 h
Test: TC71 Ewing sarcoma cell killing, confirmation, luminescence, cherry-picked samples, retest (AID 720570)

SMILES | AC35
C(=Cc1c[nH]c2ccccc12)c1ccc2ccccc2n1 | 3.86 µM
CCc1ccc2oc(C(=O)N3CCN(c4ccccc4OC)CC3)cc(=O)c2c1 | 12.6 µM
COC(=O)C1=C(C)N(Cc2cccc(C(F)(F)F)c2)C(=NCc2ccc(OC)cc2)NC1c1cccc(F)c1 (centres undefined) | 10.9 µM
Nc1sc(-c2ccccc2)cc1-c1n[nH]c(=S)n1C1CCCCC1 | 4.99 µM
C[C@@H]1CN([C@@H](C)CO)C(=O)c2cccc(NS(=O)(=O)c3ccccc3)c2O[C@@H]1CN(C)Cc1ccc(C(=O)Nc2ccccc2N)cc1 | 11.9 µM
C=C(C(=O)c1ccccc1)C(C)C(=C)C(=O)c1ccccc1 | 11.1 µM
C[C@@H]1CN([C@@H](C)CO)C(=O)c2cc(N(C)C)ccc2O[C@H]1CN(C)Cc1ccc(C(=O)Nc2ccccc2N)cc1 | 22 µM
Cc1ccc(C(C)C)c(OCc2ccc(C(=O)N/N=C/c3ccc(O)cc3O)cc2)c1 | 2.01 µM
CCCN1C/C(=C/c2ccc3c(c2)OCO3)C(=O)/C(=C/c2ccc3c(c2)OCO3)C1 | 13.6 µM
CCOc1ccc2nc(NC3=NC(c4ccc(OC)cc4)CC(=O)N3)nc(C)c2c1 (centres undefined) | 20.9 µM
Nc1ccc(Cn2ccc3c4c(N)nc(N)nc4ccc32)cc1 | 0.0342 µM
CC1(C)N=C(N)N=C(N)N1c1ccc(CCCCc2ccccc2)cc1 | 1.39 µM
O=c1[nH]c(=O)n(C2C[C@H](O)[C@@H](CO)O2)cc1C(F)(F)F (some centres undefined) | 2.59 µM
O=C(N/N=C/c1cccs1)c1n[nH]c2c1CCCC2 | 17.2 µM
COc1cccc(CN2CCC2(C)C(=O)Nc2cccc3cccnc23)c1F (centres undefined) | 14.5 µM
C[C@@H]1CN([C@@H](C)CO)C(=O)c2cc(NC(=O)c3ccccc3)ccc2O[C@@H](C)CCCCO[C@H]1CN(C)C(=O)Nc1cccc2ccccc12 | 0.679 µM
CC(=O)Oc1ccc(-c2ccc(C(=O)Nc3cccc(S(=O)(=O)N4CCOCC4)c3)cc2)cc1 | 3.71 µM
Nc1nc2cc3c(cc2cc1C(=O)NCCc1c[nH]c2ccccc12)OCO3 | 13.7 µM
Cc1cccc(N2CCN(C3C(=O)Nc4ccccc4-n4nnnc43)CC2)c1C (centres undefined) | 13.9 µM
C[C@H](CO)N1C[C@H](C)[C@H](CN(C)Cc2ccc(C(F)(F)F)cc2)Oc2ccc(NC(=O)CCCCCC(=O)Nc3ccccc3N)cc2CC1=O | 11.5 µM
CN=c1scc(-c2cccs2)n1/N=C/c1ccccc1O | 21.7 µM
O=C(NC1CCCC1)N1CCCCN2[C@@H](CO)[C@@H](c3ccc(/C=C/c4ccccc4)cc3)[C@@H]2C1 | 13.6 µM

SMILES | AC35
COc1ccc(/C=C(/C(=O)c2cccs2)N2C=CC=CC2=C(C#N)C#N)cc1 | 24.6 µM
CN1C2CCC1/C(=C/c1ccccn1)C(=O)/C2=C\c1ccccn1 | 1.43 µM
CC1=NN(c2ccc(C)cc2)C(=O)/C1=C\C=C\c1ccccc1 | 18.8 µM
O=C(C[C@H]1C[C@H]2c3cc(NS(=O)(=O)c4ccc(F)cc4)ccc3O[C@H]2[C@H](CO)O1)NCc1ccc(Oc2ccccc2)cc1 | 10.8 µM
COc1ccc(S(=O)(=O)Nc2ccc3c(c2)C(=O)N([C@H](C)CO)C[C@@H](C)[C@@H](CN(C)Cc2ccc(C(=O)Nc4ccccc4N)cc2)O3)cc1 | 18.5 µM
C[C@@H]1CN([C@H](C)CO)C(=O)c2cccc(N(C)C)c2O[C@@H]1CN(C)Cc1ccc(C(=O)Nc2ccccc2N)cc1 | 16.4 µM
C[C@@H]1O[C@@H](O[C@H]2C[C@@H](O)[C@]3(CO)[C@H]4[C@H](O)C[C@]5(C)[C@@H](C6COC(=O)C6)CC[C@]5(O)[C@@H]4CC[C@]3(O)C2)[C@H](O)[C@H](O)[C@H]1O (some centres undefined) | 4.19 µM
CC(C)Oc1ccc(Br)cc1C(=O)N/N=C/c1c[nH]c2ccccc12 | 20.1 µM
CCCC[C@@H]1Cc2[nH][nH]c(=O)c2[C@H](c2ccc3ccccc3c2)O1 | 15.2 µM
C[C@@H]1CCCCO[C@H](CN(C)Cc2ccc(C(=O)Nc3ccccc3N)cc2)[C@@H](C)CN([C@H](C)CO)C(=O)c2cc(NS(=O)(=O)c3ccc(F)cc3)ccc2O1 | 12.9 µM
CCCCc1c(Cc2ccccc2)ncn1CCc1ccccc1OC | 14.4 µM
COc1ccc(S(=O)(=O)Nc2cccc3c2O[C@H](CN(C)Cc2ccc(C(=O)Nc4ccccc4N)cc2)[C@H](C)CN([C@@H](C)CO)C3=O)cc1 | 5.62 µM
Nc1cc2c(cc1Br)[nH]c(=O)c1ccccc12 | 23.3 µM
COc1ccc(NC(=S)N=Nc2c(O)[nH]c3ccccc23)cc1 | 20.1 µM
O=C1NC(=O)N(Cc2ccc(F)cc2)C(=O)/C1=C\C=C\c1ccco1 | 9.09 µM
O=C(O)c1ccccc1C(=O)Nc1ccc(Oc2ccc3ccccc3c2)cc1 | 9.26 µM
CN(C)c1ccc2c(c1)[C@@H]1C[C@@H](CC(=O)NCc3ccc(Oc4ccccc4)cc3)O[C@H](CO)[C@@H]1O2 | 14.3 µM
C[C@H]1CN([C@@H](C)CO)C(=O)c2cc(N(C)C)ccc2O[C@@H]1CN(C)Cc1ccc(C(=O)Nc2ccccc2N)cc1 | 17.7 µM
CC12CCC3C(CCC4(O)CC(O)CCC34C=NO)C1(O)CCC2C1=COC(=O)C1 (centres undefined) | 0.97 µM
CO[C@H]1CN(C)C(=O)c2cc(NC(=O)NC(C)C)ccc2OC[C@H](C)N(Cc2ccc(-c3ccccn3)cc2)C[C@@H]1C | 20.8 µM
Cc1cc(-c2nc3ccccc3s2)ccc1N | 17.7 µM
COc1ccc(NC(=O)N2CCCCN3[C@H](CO)[C@H](c4ccc(C#CCC(C)C)cc4)[C@H]3C2)cc1 | 12.2 µM

SMILES | AC35
CC(C)=CCC/C(C)=C/CN1C(=O)N(c2ccc(F)cc2)[C@H]2C[C@@H](c3ccccc3)[C@@H](C)[C@@H](C(=O)N3CCOCC3)C[C@H]21 | 4.4 µM
O=c1[nH]c(=O)n([C@H]2C[C@H](O)[C@@H](CO)O2)cc1F | 0.282 µM
CC(C)(C)[S@](=O)N1Cc2cc(C(=O)NCC(F)(F)F)nc(-c3cccc(-c4cccc(F)c4)c3)c2[C@@H]1CCO | 16.5 µM
O=C(Sc1cccc2cccnc12)c1ccccc1Br | 10.5 µM
C(=Cc1cnc2ccccc2n1)c1ccc2c(c1)OCO2 | 15.2 µM
COc1ccc(-c2ccc3c(c2)[C@H]2[C@H](CCN2S(=O)(=O)c2ccc(OC)cc2)[C@@H](CO)N3C)cc1 | 4.48 µM
COc1ccc(S(=O)(=O)N2CC[C@@H]3[C@H](CO)Nc4ccc(-c5ccc(C#N)cc5)cc4[C@@H]32)cc1 | 4.88 µM
COc1ccccc1-c1ccc(OCCCN2CCC(C(O)(c3ccccc3)c3ccccc3)CC2)cc1 | 13.7 µM
C[C@H]1CN([C@@H](C)CO)C(=O)Cc2cc(NC(=O)C3CC3)ccc2O[C@H]1CN(C)S(=O)(=O)c1ccc(Cl)cc1 | 17.3 µM
O=C(O)c1ccc(N/N=C/c2c(F)cccc2Cl)cc1 | 3.26 µM
COc1cccc(-c2cccc(-c3nc(C(=O)NCC(F)(F)F)cc4c3[C@H](CCO)N([S@@](=O)C(C)(C)C)C4)c2)c1 | 5.61 µM
CCN1/C(=C/C=C/c2oc3ccc(-c4ccccc4)cc3[n+]2CC)Oc2ccc(-c3ccccc3)cc21 | 2.39 µM
C[C@@H]1CN([C@H](C)CO)C(=O)Cc2cc(N(C)C)ccc2O[C@H]1CN(C)Cc1ccc(C(=O)Nc2ccccc2N)cc1 | 13.6 µM
O=C1NC(=O)N(Cc2ccco2)C(=O)/C1=C/C=C/c1ccco1 | 12.5 µM
COc1ccc(OC)c(/C=C/c2ccnc3ccccc23)c1 | 2.31 µM
COc1cc(-c2cnc3c(NC=O)cc(-c4cccc(NC(C)=O)c4)cn23)cc(OC)c1OC | 0.385 µM
Cc1[nH]c(=S)sc1Cc1ccc(Cl)c(Cl)c1 | 0.898 µM
C[C@H](CO)N1C[C@H](C)[C@H](CN(C)Cc2ccc(C(=O)Nc3ccccc3N)cc2)Oc2c(cccc2N(C)C)C1=O | 17.1 µM
CC(=O)N1CCCC(c2cc(C(=O)Nc3ccccc3)no2)C1 (centres undefined) | 12.7 µM
O=C(NC(c1ccc(F)cc1)c1ccc2ccccc2n1)C1CCN(Cc2cccc(C(F)(F)F)c2)CC1 (centres undefined) | 11.2 µM
